Results reported in the supplement of paper PMC10733146.

Key:
Assay in all cases: viability relative to DMSO control (fraction); higher = less drug effect (more viable cells)
Conditions in all cases: 48 h
[1] = system: primary ALL patient cells (S048)
Summary of the method: (§1)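 Using 384-well plates with compounds already plated at five concentrations, one well per concentration, 4 × 10^4 primary mononuclear tumour cells were added per well. Cells were Ficoll-isolated from blood or bone marrow or came from processed lymph node, fresh or cryopreserved. They were kept for 48 h at 37 °C and 5% CO2 in RPMI-1640 supplemented with penicillin/streptomycin, L-glutamine and human serum, and viability was read as CellTiter-Glo luminescence relative to the median of 16 inner DMSO wells.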

[2] = system: primary ALL patient cells (S088)
Summary of the method: as §1

[3] = system: primary AML patient cells (S006)
Summary of the method: as §1

[4] = system: primary AML patient cells (S055)
Summary of the method: as §1

[5] = system: primary AML patient cells (S056)
Summary of the method: as §1

[6] = system: primary AML patient cells (S060)
Summary of the method: as §1

[7] = system: primary AML patient cells (S071)
Summary of the method: as §1

[8] = system: primary AML patient cells (S072)
Summary of the method: as §1

[9] = system: primary AML patient cells (S079)
Summary of the method: as §1

[10] = system: primary AML patient cells (S089)
Summary of the method: as §1

[11] = system: primary CLL patient cells (S031)
Summary of the method: as §1

[12] = system: primary CLL patient cells (S043)
Summary of the method: as §1

[13] = system: primary DLBCL patient cells (S049)
Summary of the method: as §1

[14] = system: primary DLBCL patient cells (S076)
Summary of the method: as §1

[15] = system: primary DLBCL patient cells (S082)
Summary of the method: as §1

[16] = system: primary MCL patient cells (S063)
Summary of the method: as §1

[17] = system: primary T-NHL patient cells (S058)
Summary of the method: as §1

## C[C@@H](Oc1cc(-c2cnn(C3CCNCC3)c2)cnc1N)c1c(Cl)ccc(F)c1Cl [Crizotinib]
[1]; 0.024 µM
  viability: 0.999
[1]; 0.12 µM
  viability: 1.04
[1]; 0.6 µM
  viability: 0.989
[1]; 3 µM
  viability: 0.638
[1]; 15 µM
  viability: 0.0947
[2]; 0.024 µM
  viability: 0.93
[2]; 0.12 µM
  viability: 0.956
[2]; 0.6 µM
  viability: 0.798
[2]; 3 µM
  viability: 0.568
[2]; 15 µM
  viability: 0.0811
[3]; 0.024 µM
  viability: 0.944
[3]; 0.12 µM
  viability: 0.926
[3]; 0.6 µM
  viability: 0.695
[3]; 3 µM
  viability: 0.491
[3]; 15 µM
  viability: 0.18
[4]; 0.024 µM
  viability: 0.948
[4]; 0.12 µM
  viability: 0.954
[4]; 0.6 µM
  viability: 0.999
[4]; 3 µM
  viability: 0.683
[4]; 15 µM
  viability: 0.524
[5]; 0.024 µM
  viability: 1.13
[5]; 0.12 µM
  viability: 0.919
[5]; 0.6 µM
  viability: 1.07
[5]; 3 µM
  viability: 0.857
[5]; 15 µM
  viability: 0.084
[6]; 0.024 µM
  viability: 0.926
[6]; 0.12 µM
  viability: 0.931
[6]; 0.6 µM
  viability: 0.931
[6]; 3 µM
  viability: 0.841
[6]; 15 µM
  viability: 0.445
[7]; 0.024 µM
  viability: 0.879
[7]; 0.12 µM
  viability: 0.837
[7]; 0.6 µM
  viability: 0.556
[7]; 3 µM
  viability: 0.363
[7]; 15 µM
  viability: 0.0351
[8]; 0.024 µM
  viability: 0.903
[8]; 0.12 µM
  viability: 0.983
[8]; 0.6 µM
  viability: 0.838
[8]; 3 µM
  viability: 0.602
[8]; 15 µM
  viability: 0.127
[9]; 0.024 µM
  viability: 0.977
[9]; 0.12 µM
  viability: 0.953
[9]; 0.6 µM
  viability: 0.872
[9]; 3 µM
  viability: 0.659
[9]; 15 µM
  viability: 0.256
[10]; 0.024 µM
  viability: 0.935
[10]; 0.12 µM
  viability: 0.93
[10]; 0.6 µM
  viability: 0.722
[10]; 3 µM
  viability: 0.359
[10]; 15 µM
  viability: 0.0318
[11]; 0.024 µM
  viability: 1.1
[11]; 0.12 µM
  viability: 1.08
[11]; 0.6 µM
  viability: 1.12
[11]; 3 µM
  viability: 0.712
[11]; 15 µM
  viability: 0.194
[12]; 0.024 µM
  viability: 0.95
[12]; 0.12 µM
  viability: 0.977
[12]; 0.6 µM
  viability: 0.949
[12]; 3 µM
  viability: 0.772
[12]; 15 µM
  viability: 0.4
[13]; 0.024 µM
  viability: 1.04
[13]; 0.12 µM
  viability: 1.08
[13]; 0.6 µM
  viability: 1.04
[13]; 3 µM
  viability: 0.98
[13]; 15 µM
  viability: 0.0442
[14]; 0.024 µM
  viability: 0.938
[14]; 0.12 µM
  viability: 1.03
[14]; 0.6 µM
  viability: 0.999
[14]; 3 µM
  viability: 0.77
[14]; 15 µM
  viability: 0.17
[15]; 0.024 µM
  viability: 0.975
[15]; 0.12 µM
  viability: 0.989
[15]; 0.6 µM
  viability: 1.01
[15]; 3 µM
  viability: 0.916
[15]; 15 µM
  viability: 0.36
[16]; 0.024 µM
  viability: 0.942
[16]; 0.12 µM
  viability: 1.03
[16]; 0.6 µM
  viability: 1
[16]; 3 µM
  viability: 0.896
[16]; 15 µM
  viability: 0.254
[17]; 0.024 µM
  viability: 0.908
[17]; 0.12 µM
  viability: 1.01
[17]; 0.6 µM
  viability: 0.903
[17]; 3 µM
  viability: 0.812
[17]; 15 µM
  viability: 0.335
